Where a name gives a salt, the structure may show the parent alone.
Experiments:
[1] = system: male Swiss albino mice (CD-1); assay: Psychomotor seizure test 6 Hz (32 mA); format: in vivo; settings: screening, 100 mg/kg i.p., 0.5 h, mice; for responders at 100 mg/kg: Mus musculus, ip, read-out: 6 Hz (32 mA): number of mice protected/number of mice tested (converted)
Experimental: (§1) The male Swiss albino mice (CD-1) weighing 18-26 g were used. All procedures were carried out in accordance with applicable Polish and international guidelines on the ethics of animal testing, after obtaining appropriate institutional approval. The substances were administered intraperitoneally (i.p.), in 1% aqueous solution of Tween, as single injections with a volume of 10 ml/kg, 30 minutes before the given test. Screening was performed on groups consisted of 4 mice. The average effective dose (ED50) in given test and toxic dose in the rotarod test (TD50) was estimated based on the results obtained in 3-4 groups of animals consisting of 6 mice. All tests were carried out based on the procedures described in the specialist literature.
In the 6 Hz test, seizures were induced by an electric stimulus of 32 mA and/or 44 mA and a frequency of 6 pulses per second. An electrical pulse was generated using an electric shock generator (ECT Unit 57800; Ugo Basile, Gemonio, Italy) and delivered to the animal using ocular electrodes. Before starting the test, the eye surface was gently moistened with a solution of local anesthetic (1% lidocaine solution). The study was conducted 30 minutes after intraperitoneal administration of the compounds at various doses. An electrical pulse was delivered continuously for a period of 3 seconds, followed by observation of the animal for a period of 10 seconds. During this time, immobility or stun associated with rearing, forelimb clonus, twitching of the vibrissae and Straub's tail were observed. These symptoms persist throughout the observation period, indicating the occurrence of psychomotor seizures in mice. Mice resuming normal behavior within 10 s after stimulation were considered as protected (Barton, M. E.; Klein, B. D.; Wolf, H. H.; White, H. S. Epilepsy Res. 2001, 47, 217-227; Wojda, E.; Wlaź, A.; Patsalos, P. N.; Łuszczki, J. J. Epilepsy Res. 2009, 86, 163-174).
(§2) To perform a statistical evaluation of the results, one-way ANOVA variance analysis and Dunnett's post hoc test (multiple comparison test) were used. The value at the significance level p<0.05 was considered statistically significant.

[2] = system: male Swiss albino mice (CD-1); assay: Subcutaneous pentylenetetrazole seizure test (scPTZ); format: in vivo; settings: screening, 100 mg/kg i.p., 0.5 h, mice; for responders at 100 mg/kg: Mus musculus, ip, read-out: scPTZ: number of mice protected/number of mice tested (converted)
Experimental: as §1
In the scPTZ test, seizures were induced by subcutaneous administration of pentylenetetrazole (PTZ) at a dose of 100 mg/kg. This caused clonic seizures with accompanying loss of the righting reflex. Test compounds were administered 30 minutes before the experiment. After PTZ administration, the animals were placed individually in transparent containers and observed for a period of 30 minutes for the occurrence of clonic seizures. During this time, the latency of the first onset of clonic seizures, defined as clonus of the whole body lasting at least 3 seconds with loss of the righting reflex and the number of seizure episodes during the test were noted and compared with control group. The absence of clonic convulsions within the observed time period was interpreted as the compound's ability to protect against PTZ-induced seizures (Ferreri, G.; Chimirri, A.; Russo, E.; Gitto, R.; Gareri, P.; De Sarro, A.; De Sarro, G. Pharmacol. Biochem. Behav. 2004, 77, 85-94; Łączkowski, K.; Sałat, K.; Misiura, K.; Podkowa, A.; Malikowska, N. J. Enzyme Inhib. Med. Chem. 2016, 31, 1576-82).
as §2

[3] = system: male Swiss albino mice (CD-1); assay: Maximal electroshock seizure test (MES); format: in vivo; settings: screening, 100 mg/kg i.p., 0.5 h, mice; for responders at 100 mg/kg: Mus musculus, ip, read-out: MES: number of mice protected/number of mice tested (converted)
Experimental: as §1
In the MES test, the seizures were induced by an electrical stimulus lasting of 0.2 s duration, 500 V voltage and 25 mA intensity. The electrical stimuli was generated using an electric shock generator (Rodent shocker, Type 221, Hugo Sachs Elektronik, Germany) and delivered to the animal using electrodes placed on the auricles. The study was conducted 30 minutes after intraperitoneal administration of the compounds at various doses. During the experiment, the number of animals that experienced a seizure episode in the form of tonic extension of the hind limbs was counted (Kamiński, K.; Rapacz, A.; Łuszczki, J. J.; Latacz, G.; Obniska, J.; Kieć-Kononowicz, K.; Filipek, B. Bioorg. Med. Chem. 2015, 23, 2548-2561; Castel-Branco, M. M.; Alves, G. L.; Figueiredo, I. V.; Falcão, A. C.; Caramona, M. M. Methods Find. Exp. Clin. Pharmacol. 2009, 31, 101-106).
as §2

| SMILES | melting point | 6 Hz (32 mA): number of mice protected/number of mice tested [1] | scPTZ: number of mice protected/number of mice tested [2] | MES: number of mice protected/number of mice tested [3] | responders at 100 mg/kg [2] | responders at 100 mg/kg [3] | responders at 100 mg/kg [1] |
| --- | --- | --- | --- | --- | --- | --- | --- |
| O=C(C(c1ccccc1)N1C(=O)CCC1=O)N1CCN(c2ccc(C(F)(F)F)cc2)CC1 (racemic) [Compound 7, 1-(2-Oxo-1-phenyl-2-(4-(4-(trifluoromethyl)phenyl)piperazin-1-yl)ethyl)pyrrolidine-2,5-dione] | 173.2 to 174.3 °C | ¾ | ¾ | ¾ |  |  |  |
| O=C(C(c1ccccc1)N1C(=O)CCC1=O)N1CCN(c2cc(C(F)(F)F)cc(C(F)(F)F)c2)CC1 (racemic) [Compound 8, 1-(2-(4-(3,5-Bis(trifluoromethyl)phenyl)piperazin-1-yl)-2-oxo-1-phenylethyl)pyrrolidine-2,5-dione] | 228.1 to 229.4 °C | ¾ |  |  | 100% | 100% |  |
| O=C(C(c1ccccc1)N1C(=O)CCC1=O)N1CCN(c2ccc(OC(F)(F)F)cc2)CC1 (racemic) [Compound 11, 1-(2-Oxo-1-phenyl-2-(4-(4-(trifluoromethoxy)phenyl)piperazin-1-yl)ethyl)pyrrolidine-2,5-dione] | 102.3 to 103.5 °C | ¾ |  | ¾ | 50% |  |  |
| O=C(C(c1ccccc1)N1C(=O)CCC1=O)N1CCN(c2ccc3ccccc3c2)CC1 (racemic) [Compound 15, 1-(2-(4-(Naphth-2-yl)piperazin-1-yl)-2-oxo-1-phenylethyl)pyrrolidine-2,5-dione] | 197.1 to 198.5 °C | ¾ | ¾ |  |  | 50% |  |
| O=C(C(c1ccccc1)N1C(=O)CCC1=O)N1CCN(c2ccc3sccc3c2)CC1 (racemic) [Compound 16, 1-(2-(4-(Benzo[b]thiophen-5-yl)piperazin-1-yl)-2-oxo-1-phenylethyl)pyrrolidine-2,5-dione] | 164.1 to 165.3 °C | ¾ | ¾ | ¾ |  |  |  |
| O=C(C(c1ccccc1)N1C(=O)CCC1=O)N1CCC(c2cccc(Cl)c2)CC1 (racemic) [Compound 18, 1-(2-(4-(3-Chlorophenyl)piperidin-1-yl)-2-oxo-1-phenylethyl)pyrrolidine-2,5-dione] | 111.8 to 113.4 °C | ¾ | ¾ | ¾ |  |  |  |
| O=C(C(c1ccccc1)N1C(=O)CCC1=O)N1CCC(c2cccc(OC(F)(F)F)c2)CC1 (racemic) [Compound 20, 1-(2-Oxo-1-phenyl-2-(4-(3-(trifluoromethoxy)phenyl)piperidin-1-yl)ethyl)pyrrolidine-2,5-dione] | 112.1 to 113.2 °C | ¾ |  |  | 50% | 100% |  |
| O=C([C@@H](c1ccccc1)N1C(=O)CCC1=O)N1CCN(c2cc(Cl)cc(Cl)c2)CC1 [(R)-4, (R)-1-(2-(4-(3,5-dichlorophenyl)piperazin-1-yl)-2-oxo-1-phenylethyl)pyrrolidine-2,5-dione] | 174.3 to 175.5 °C |  |  |  | 50% | 100% | 100% |
| O=C([C@@H](c1ccccc1)N1C(=O)CCC1=O)N1CCN(c2cccc(SC(F)(F)F)c2)CC1 [(R)-12] |  | 4/4 | ¼ | 4/4 |  |  |  |
| O=C(C(c1ccccc1)N1C(=O)CCC1=O)N1CCN(c2ccc3oncc3c2)CC1 (stereo not shown) [Compound 17, 1-(2-(4-(1,2-Benzoxazol-5-il)piperazin-1-yl)-2-oxo-1-phenylethyl)pyrrolidine-2,5-dione] |  | ¾ | ¾ | ¾ |  |  |  |

Continued, in another order:

| melting point | SMILES | 6 Hz (32 mA): number of mice protected/number of mice tested [1] | scPTZ: number of mice protected/number of mice tested [2] | MES: number of mice protected/number of mice tested [3] | responders at 100 mg/kg [2] | responders at 100 mg/kg [3] | responders at 100 mg/kg [1] |
| --- | --- | --- | --- | --- | --- | --- | --- |
| 126.1 to 127.2 °C | O=C(C(Cc1ccccc1)N1C(=O)CCC1=O)N1CCN(c2cccc(C(F)(F)F)c2)CC1 (stereo not shown) (as salt: salt) [Example 23, 1-(1-Oxo-3-phenyl-1-(4-(3-(trifluoromethyl)phenyl)piperazin-1-yl)propan-2-yl)pyrrolidine-2,5-dione] |  |  |  |  |  |  |
| 121.7 to 123.2 °C | O=C(C(Cc1ccccc1)N1C(=O)CCC1=O)N1CCN(c2ccccc2)CC1 (stereo not shown) [Compound 21, 1-(1-Oxo-3-phenyl-1-(4-phenylpiperazin-1-yl)prop-2-yl)pyrrolidine-2,5-dione] |  |  |  |  |  |  |
| 114.3 to 116.2 °C | O=C(C(Cc1ccccc1)N1C(=O)CCC1=O)N1CCN(c2cccc(Cl)c2)CC1 (stereo not shown) [Compound 22, 1-(1-(4-(3-Chlorophenyl)piperazin-1-yl)-1-oxo-3-phenylpropan-2-yl)pyrrolidine-2,5-dione] |  |  |  |  |  |  |
| 119.1 to 120 °C | O=C(C(Cc1ccccc1)N1C(=O)CCC1=O)N1CCN(c2cccc(-c3ccccc3)c2)CC1 (stereo not shown) [Compound 24, 1-(1-(4-([1,1′-Biphenyl]-3-yl)piperazin-1-yl)-1-oxo-3-phenylpropan-2-yl)pyrrolidine-2,5-dione] |  |  |  |  |  |  |
| 104.4 to 105.5 °C | O=C(C(Cc1ccccc1)N1C(=O)CCC1=O)N1CCN(c2cccc(OC(F)(F)F)c2)CC1 (stereo not shown) [Compound 25, 1-(1-Oxo-3-phenyl-1-(4-(3-(trifluoromethoxy)phenyl)piperazin-1-yl)propan-2-yl)pyrrolidine-2,5-dione] |  |  |  |  |  |  |
| 161.2 to 163.4 °C | CNC1CC(=O)N(C(C(=O)N2CCN(c3cccc(C(F)(F)F)c3)CC2)c2ccccc2)C1=O.Cl (stereo not shown) [Compound 48, 3-(Methylamino)-1-(2-oxo-1-phenyl-2-(4-(3-(trifluoromethyl)phenyl)piperazin-1-yl)ethyl)pyrrolidine-2,5-dione hydrochloride] |  | ¾ |  |  | 100% | 100% |
| 157.8 to 159.2 °C | CN(C)C1CC(=O)N(C(C(=O)N2CCN(c3cccc(C(F)(F)F)c3)CC2)c2ccccc2)C1=O.Cl (stereo not shown) [Compound 49, 3-(Dimethylamino)-1-(2-oxo-1-phenyl-2-(4-(3-(trifluoromethyl)phenyl)-piperazin-1-yl)ethyl)pyrrolidine-2,5-dione hydrochloride] |  | ¾ |  |  | 100% | 100% |
| 142.2 to 143.1 °C | CCN(CC)C1CC(=O)N(C(C(=O)N2CCN(c3cccc(C(F)(F)F)c3)CC2)c2ccccc2)C1=O.Cl (stereo not shown) [Compound 50, 3-(Diethylamino)-1-(2-oxo-1-phenyl-2-(4-(3-(trifluoromethyl)phenyl)piperazin-1-yl)ethyl)pyrrolidine-2,5-dione hydrochloride] |  |  |  | 50% | 100% | 100% |
